Source: US8492391B2, “Substituted 6-(2-hydroxybenzylamino)purine derivatives, their use as medicaments and compositions containing these derivatives” (Univerzita Palackeho V Olomouci, priority 2009, dated 2013)

Test system: p53, p21^WAF1, Mcl-1 in MCF-7 cells
Assay: Immunoblotting of p53, p21WAF1 and Mcl-1 in MCF-7 cells
Type: cell-based, human
Protocol: For immunoblotting, cell were detached with rubber policeman and washed three times with ice-cold PBS and lysed in buffer (50 mM Tris, pH 7.4, 250 mM NaCl, 5 mM EDTA, 50 mM NaF, 1 mM Na3VO4, 1% Nonidet P40) containing mixture of protease and phosphatase inhibitors (Sigma-Aldrich, USA). 20 μg of total proteins were separated by SDS-polyacrylamide gel electrophoresis (SDS-PAGE) and transferred onto nitrocellulose membranes. Membranes were blocked in 5% milk and 0.1% Tween 20 in PBS and probed overnight with specific monoclonal antibodies or rabbit polyclonal sera. Primary antibodies specific for p53 (DO-1, in house), p21^WAF1 (118, in house), PARP-1 (2C10, Sigma-Aldrich St Louis, Mo., USA), Mcl-1 (S-19, Santa Cruz, USA), all used at 1 μg/ml. All primary antibodies were diluted in PBS containing 5% powdered milk; 0.1% Tween 20. Peroxidase conjugated rabbit anti-mouse immunoglobulin or porcine anti-rabbit immunoglobulin antisera (DAKO, Denmark) were used as the secondary antibodies and visualised with ECL reagents (Amersham-Pharmacia, Little Chalfont, UK).
The induction of p53 protein was apparent in 4 hrs but enhanced level of p21^WAF1 protein was observed only 12 hours after treatment with compound 128 (FIG. 5). The periods of time 12 and 24 hrs were chosen, since the level of protein expression reached a steady state.

CCC(CO)Nc1nc(NCc2cccc(OC)c2O)c2ncn(C(C)C)c2n1 (racemic) [Compound 128, (RS)-2-({6-[(2-hydroxy-3-methoxybenzyl)amino]-9-isopropyl-9-H-purin-2-yl}amino)butan-1-ol]
expression of p53, p21^Waf1 and Mcl-1 (MCF7, 24 h, concentration dependent, immunoblotting): accumulation of tumor suppressor protein p53, expression of p53-regulated CDK inhibitor p21^Waf1 and downregulation of antiapoptotic protein Mcl-1 | time after treatment at which enhanced level of p21^WAF1 protein was observed (MCF-7 cells): 12 h | time at which induction of p53 protein was apparent (MCF-7 cells): 4 h
